Results from PubChem BioAssay (NCI).
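In this assay, cells in 96-well plates receive the compound at five concentrations for 48 hours. Endpoints are linearly interpolated between the surrounding concentrations. GI50 = concentration required for 50% inhibition of growth. TGI: concentration producing complete growth inhibition.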

Assays:
Test in all cases: NCI tumour cell line growth inhibition, 48 h
[1] = system: SN12C renal
[2] = system: OVCAR-5 ovarian
[3] = system: UACC-257 melanoma
[4] = system: 786-0 renal
[5] = system: HOP-62 NSCLC
[6] = system: MALME-3M melanoma
[7] = system: SK-MEL-2 melanoma
[8] = system: ACHN renal
[9] = system: UACC-62 melanoma

| Compound | GI50 [1] | TGI [1] | GI50 [2] | TGI [2] | GI50 [3] | TGI [3] | GI50 [4] | TGI [4] | GI50 [5] | TGI [5] | GI50 [6] | TGI [6] | GI50 [7] | TGI [7] | GI50 [8] | TGI [8] | GI50 [9] | TGI [9] |
| --- | --- | --- | --- | --- | --- | --- | --- | --- | --- | --- | --- | --- | --- | --- | --- | --- | --- | --- |
| CC/C=C\C[C@H](F)C/C=C1/C(=O)C=C[C@@H]1C/C=C\CCCC(=O)O | 7.01 µM | 20.5 µM | 8.18 µM | 21 µM | 5.23 µM | 11.4 µM | 7.24 µM | 13.3 µM | 7.65 µM | 15.2 µM | 8.08 µM | 23.2 µM | 6.7 µM | 16.9 µM | 4.99 µM | 9.85 µM | 4.29 µM | 11.1 µM |
| Cc1cc2c(cc1Cl)SC1=NN(C)S(=O)N1S2(=O)=O (stereo unspecified) | > 100 µM | > 100 µM | > 100 µM | > 100 µM | > 100 µM | > 100 µM | > 100 µM | > 100 µM | > 100 µM | > 100 µM | > 100 µM | > 100 µM | > 100 µM | > 100 µM | > 100 µM | > 100 µM | 88.4 µM | > 100 µM |
| CCN(CC)CCCC(C)Nc1c2ccc(Cl)cc2nc2ccc(O)cc12 (stereo unspecified) | 2.59 µM | 16.6 µM | 2.21 µM | 7.78 µM | 1.7 µM | 3.31 µM | 2.77 µM | 11.9 µM | 1.49 µM | 5.32 µM | 1.42 µM | 2.87 µM | 4.78 µM | 19.9 µM | 1.17 µM | 2.81 µM | 1.89 µM | 4.02 µM |
| COc1cc2ncn(-c3cc(OCc4cccs4)c(C(N)=O)s3)c2cc1OC | 2.8 µM | > 25 µM | 2.55 µM | > 25 µM | 3.15 µM | > 25 µM | 4.86 µM | > 25 µM | 1.53 µM | > 25 µM | 2.5 µM | > 25 µM | 2.08 µM | 17 µM | 6.39 µM | > 25 µM | 1.33 µM | > 16.8 µM |
| C[N+]1=C(/C=C/c2ccc(O)c3ncccc23)C(C)(C)c2ccccc21 | 2.82 µM | 10.4 µM | 2.42 µM | 12.6 µM | 3.81 µM | 13.5 µM | 3.57 µM | 13 µM | 3.44 µM | 14.5 µM | 2.01 µM | 5.43 µM | 3.88 µM | 24 µM | 1.98 µM | 7.03 µM | 2.47 µM | 8.54 µM |
| O=C(CCc1nnc2sc(-c3ccc(Cl)cc3Cl)nn12)c1nc2ccccc2[nH]1 | 1.41 µM | 4.22 µM | 1.96 µM | 4.23 µM | 1.83 µM | 4.31 µM | 1.48 µM | 2.89 µM | 0.577 µM | 2.12 µM | 0.821 µM | 3.52 µM | 1.78 µM | 5.4 µM | 0.337 µM | 1.29 µM | 1.19 µM | 2.62 µM |
| Nc1nccc(-c2c(-c3ccc(F)cc3)ncn2C2CCC(O)CC2)n1 (stereo unspecified) | 6.72 µM | > 25 µM | 8.45 µM | > 25 µM | 16.1 µM | > 25 µM | 10.7 µM | > 25 µM | 13.2 µM | > 25 µM | 6.72 µM | > 25 µM | 24.7 µM | > 25 µM | 2.83 µM | > 25 µM | 10.6 µM | > 25 µM |
